Data taken from US20110039763A1, “TARGETED ANTIMICROBIAL MOIETIES” (C3 JIAN, INC., priority 2009, published 2011).
“Also recorded” adds a separate entry of the source.

Tests used:
microorganisms [1] = test: Peptide activities: targeting/binding, antimicrobial, growth or phenotype altering (Tables 7, 8); format: cell-based; conditions: peptides having multiple activities
microorganisms [2] = test: Targeting peptide binding to target microorganisms (Tables 3, 10, 12); conditions: microorganism(s) the targeting peptide binds; binding in aqueous buffers that varied with peptide solubility, preferably 1x PBS
microorganisms [3] = test: Morphology, biofilm and growth disrupting peptides (Table 5); format: cell-based; design: key: A: Peptide aggregates; B: Less hyphal formation; Clumps; Diffuse clumps and small polyps; F: Diffuse growth; H: Thin; I: Growth inhibition; Microcolony formation; Rippled; Small polyps; Thick; W: Halo formation on top, microlonies on bottom
From the text: In certain embodiments peptides that induce alterations in phenotype or other biological activities can also be used as antimicrobial effector moieties.

PF-026: peptide having multiple activities (SIHFIN; Peptide with targeting and/or antimicrobial activity)
Activities (microorganisms [1]): G B
Target(s) (microorganisms [2]): S. epidermidis and M. luteus and P. mirabilis and C. albicans and MRSA and E. faecalis and C. jeikeium
Organism, effect: MRSA (microorganisms [3]): MRSA (M)

PF-027: peptide having multiple activities (HNARKYLEFISQKIDGDKLTKEDSL; Peptide with targeting and/or antimicrobial activity)
Activities (microorganisms [1]): G B
Target(s) (microorganisms [2]): M. luteus and MRSA and E. faecalis and C. jejuni
Organism, effect: MRSA (microorganisms [3]): MRSA (M)
Organism, effect: S. epidermidis (microorganisms [3]): S. epidermidis (D)

PF-029: peptide having multiple activities (NSTNE; Peptide with targeting and/or antimicrobial activity)
Activities (microorganisms [1]): G B
Target(s) (microorganisms [2]): S. epidermidis; also recorded: M. luteus; also recorded: C. albicans; also recorded: C. jejuni
Organism, effect: MRSA (microorganisms [3]): MRSA (M)

PF-031: peptide having multiple activities (MPHHSTTSSRIVVPAHQSNMASTPNLSITP; Peptide with targeting and/or antimicrobial activity)
Activities (microorganisms [1]): G B
Target(s) (microorganisms [2]): M. luteus; also recorded: C. albicans
Organism, effect: MRSA (microorganisms [3]): MRSA (M)

PF-034: peptide having multiple activities (EPKKKHFPKMESASSEP; Peptide with targeting and/or antimicrobial activity)
Activities (microorganisms [1]): G B
Target(s) (microorganisms [2]): M. luteus
Organism, effect: S. epidermidis (microorganisms [3]): S. epidermidis (A)

PF-035: peptide having multiple activities (SFYESY; Peptide with targeting and/or antimicrobial activity)
Activities (microorganisms [1]): G B
Target(s) (microorganisms [2]): S. epidermidis and M. luteus and E. coli and C. albicans and MRSA and C. jeikeium and C. jejuni
Organism, effect: MRSA (microorganisms [3]): MRSA (M)

PF-036: peptide having multiple activities (ILNRLSRIVSNEVTSLIYSLK; Peptide with targeting and/or antimicrobial activity)
Activities (microorganisms [1]): G B
Target(s) (microorganisms [2]): S. epidermidis and M. luteus and P. mirabilis and E. coli and C. albicans and MRSA and S. pneumoniae and C. jejuni
Organism, effect: C. jeikeium (microorganisms [3]): C. jeikeium (A)
Organism, effect: M. luteus (microorganisms [3]): M. luteus (A)
Organism, effect: MRSA (microorganisms [3]): MRSA (R)
Organism, effect: S. epidermidis (microorganisms [3]): S. epidermidis (S)

PF-041: peptide having multiple activities (ELLVILPGFI; Peptide with targeting and/or antimicrobial activity)
Activities (microorganisms [1]): G B
Target(s) (microorganisms [2]): MRSA
Organism, effect: MRSA (microorganisms [3]): MRSA (M)
Organism, effect: S. epidermidis (microorganisms [3]): S. epidermidis (R)

PF-043: peptide having multiple activities (MIKNETAYQMNELLVIRSAYAK; Peptide with targeting and/or antimicrobial activity)
Activities (microorganisms [1]): G B
Target(s) (microorganisms [2]): M. luteus; also recorded: C. jejuni
Organism, effect: C. jeikeium (microorganisms [3]): C. jeikeium (A)
Organism, effect: M. luteus (microorganisms [3]): M. luteus (C)
Organism, effect: MRSA (microorganisms [3]): MRSA (R)
Organism, effect: S. epidermidis (microorganisms [3]): S. epidermidis (D)

PF-045: peptide having multiple activities (LDINDYRSTY; Peptide with targeting and/or antimicrobial activity)
Activities (microorganisms [1]): G B
Target(s) (microorganisms [2]): S. epidermidis; also recorded: E. coli; also recorded: E. faecalis; also recorded: C. jejuni
Organism, effect: MRSA (microorganisms [3]): MRSA (S)

PF-046: peptide having multiple activities (LDFYLTKHLTLML; Peptide with targeting and/or antimicrobial activity)
Activities (microorganisms [1]): G B
Target(s) (microorganisms [2]): E. coli; also recorded: E. faecalis; also recorded: C. jeikeium
Organism, effect: C. jeikeium (microorganisms [3]): C. jeikeium (R)
Organism, effect: MRSA (microorganisms [3]): MRSA (R)
Organism, effect: S. epidermidis (microorganisms [3]): S. epidermidis (C)

PF-048: peptide having multiple activities (LYFAFKKYQERVNQAPNIEY; Peptide with targeting and/or antimicrobial activity)
Activities (microorganisms [1]): G B
Target(s) (microorganisms [2]): S. epidermidis and M. luteus and E. coli and MRSA and C. jeikeium and C. jejuni
Organism, effect: C. jeikeium (microorganisms [3]): C. jeikeium (S)
Organism, effect: MRSA (microorganisms [3]): MRSA (W)
Organism, effect: S. epidermidis (microorganisms [3]): S. epidermidis (D)

PF-049: peptide having multiple activities (AYYLKRREEKGK; Peptide with targeting and/or antimicrobial activity)
Activities (microorganisms [1]): G B
Target(s) (microorganisms [2]): S. epidermidis and MRSA and C. jeikeium and C. jejuni
Organism, effect: MRSA (microorganisms [3]): MRSA (S)

PF-051: peptide having multiple activities (RFFNFEIKKSTKVDYVFAHVDLSDV; Peptide with targeting and/or antimicrobial activity)
Activities (microorganisms [1]): G B
Target(s) (microorganisms [2]): S. epidermidis and M. luteus and P. aeruginosa and C. albicans and MRSA and S. pneumoniae and E. faecalis
Organism, effect: M. luteus (microorganisms [3]): M. luteus (C)
Organism, effect: MRSA (microorganisms [3]): MRSA (D)
Organism, effect: S. epidermidis (microorganisms [3]): S. epidermidis (D)
Organism, effect: S. mutans (microorganisms [3]; S. mutans, class symbol): S. mutans (D)
Organism, effect: S. pneumoniae (microorganisms [3]): S. pneumoniae (D)

PF-052: peptide having multiple activities (QELINEAVNLLVKSK; Peptide with targeting and/or antimicrobial activity)
Activities (microorganisms [1]): G B
Target(s) (microorganisms [2]): S. epidermidis and M. luteus and E. coli and MRSA and E. faecalis and C. jeikeium and C. jejuni
Organism, effect: C. jeikeium (microorganisms [3]): C. jeikeium (D)
Organism, effect: M. luteus (microorganisms [3]): M. luteus (A)
Organism, effect: MRSA (microorganisms [3]): MRSA (R)
Organism, effect: S. epidermidis (microorganisms [3]): S. epidermidis (S)

PF-058: peptide having multiple activities (FADQSQDNA; Peptide with targeting and/or antimicrobial activity)
Activities (microorganisms [1]): G B
Target(s) (microorganisms [2]): S. epidermidis and M. luteus and E. coli and C. albicans and MRSA and C. jeikeium and C. jejuni
Organism, effect: MRSA (microorganisms [3]): MRSA (M)

PF-061: peptide having multiple activities (GYNSYKAVQDVKTHSEEQRVTAKK; Peptide with targeting and/or antimicrobial activity)
Activities (microorganisms [1]): G B
Target(s) (microorganisms [2]): S. epidermidis; also recorded: S. pneumoniae
Organism, effect: B. subtilis (microorganisms [3]; B. subtilis): B. subtilis (R)
Organism, effect: C. jejuni (microorganisms [3]; C. jejuni): C. jejuni (R)
Organism, effect: S. epidermidis (microorganisms [3]): S. epidermidis (R)
Organism, effect: S. pneumoniae (microorganisms [3]): S. pneumoniae (R)

PF-064: peptide having multiple activities (DYYGKE; Peptide with targeting and/or antimicrobial activity)
Activities (microorganisms [1]): G B
Target(s) (microorganisms [2]): E. coli
Organism, effect: MRSA (microorganisms [3]): MRSA (M)
Organism, effect: S. epidermidis (microorganisms [3]): S. epidermidis (D)

PF-065: peptide having multiple activities (LEKNTRDNYFIHAIDRIYINTSKGLFPESELVAWG; Peptide with targeting and/or antimicrobial activity)
Activities (microorganisms [1]): G B
Target(s) (microorganisms [2]): M. luteus and E. coli and P. aeruginosa and C. albicans and MRSA and S. pneumoniae and C. jeikeium and C. jejuni
Organism, effect: C. jeikeium (microorganisms [3]): C. jeikeium (A)
Organism, effect: MRSA (microorganisms [3]): MRSA (R)
Organism, effect: S. epidermidis (microorganisms [3]): S. epidermidis (D)
